Laboratory results as given in the supplement of paper PMC10307832.

Legend:
Experiment in all cases: relative viability (nuclei count vs DMSO), 5 days (fraction); higher = more cells survive
[1] = tested on: ABC-1
How it was run: (§1)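 For relative viability, nuclei counts in treated wells were divided by those in vehicle wells. Lung cancer cell lines had been pin-tool dosed in 1536-well plates the day after seeding and cultured for 5 days, then fixed and stained in one step (final 0.05% Triton X-100, 1% formaldehyde, 1 ug/ml Hoechst) and imaged at 4×. Doses were one drug alone or a fixed anchor-drug dose plus five library-drug doses (not always all listed) in √10 steps, and values are duplicate-plate medians.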

[2] = tested on: CAL-12T
How it was run: as §1

[3] = tested on: ChaGo-K-1
How it was run: as §1

[4] = tested on: HCC-366
How it was run: as §1

[5] = tested on: HCC-78
How it was run: as §1

[6] = tested on: LC-2-ad
How it was run: as §1

[7] = tested on: LOU-NH91
How it was run: as §1

[8] = tested on: LU99A
How it was run: as §1

[9] = tested on: NCI-H1395
How it was run: as §1

[10] = tested on: NCI-H1651
How it was run: as §1

[11] = tested on: NCI-H1755
How it was run: as §1

[12] = tested on: NCI-H1793
How it was run: as §1

[13] = tested on: NCI-H1944
How it was run: as §1

[14] = tested on: NCI-H2087
How it was run: as §1

[15] = tested on: NCI-H2170
How it was run: as §1

[16] = tested on: NCI-H2228
How it was run: as §1

[17] = tested on: NCI-H2405
How it was run: as §1

[18] = tested on: NCI-H3122
How it was run: as §1

[19] = tested on: NCI-H460
How it was run: as §1

[20] = tested on: PC-3 [JPC-3]
How it was run: as §1

[21] = tested on: RERF-LC-KJ
How it was run: as §1

[22] = tested on: UMC-11
How it was run: as §1

COc1nc(C)cnc1NS(=O)(=O)c1cccnc1-c1ccc(-c2nnco2)cc1 [Zibotentan] + CC(=O)c1c(C)c2cnc(Nc3ccc(N4CCNCC4)cn3)nc2n(C2CCCC2)c1=O [Palbociclib] (partner 0.5 µM)
relative viability ([1]; first compound 0.08 µM): 0.603 | relative viability ([1]; first compound 0.253 µM): 0.475 | relative viability ([1]; first compound 0.8 µM): 0.664 | relative viability ([1]; first compound 2.53 µM): 0.676 | relative viability ([2]; first compound 0.08 µM): 0.625 | relative viability ([2]; first compound 0.253 µM): 0.365 | relative viability ([2]; first compound 0.8 µM): 0.629 | relative viability ([2]; first compound 2.53 µM): 0.508 | relative viability ([3]; first compound 0.08 µM): 0.965 | relative viability ([3]; first compound 0.253 µM): 0.945 | relative viability ([3]; first compound 0.8 µM): 0.947 | relative viability ([3]; first compound 2.53 µM): 0.972 | relative viability ([4]; first compound 0.08 µM): 0.387 | relative viability ([4]; first compound 0.253 µM): 0.285 | relative viability ([4]; first compound 0.8 µM): 0.383 | relative viability ([4]; first compound 2.53 µM): 0.4 | relative viability ([5]; first compound 0.08 µM): 0.464 | relative viability ([5]; first compound 0.253 µM): 0.488 | relative viability ([5]; first compound 0.8 µM): 0.512 | relative viability ([5]; first compound 2.53 µM): 0.512 | relative viability ([6]; first compound 0.08 µM): 0.489 | relative viability ([6]; first compound 0.253 µM): 0.459 | relative viability ([6]; first compound 0.8 µM): 0.44 | relative viability ([6]; first compound 2.53 µM): 0.508 | relative viability ([7]; first compound 0.08 µM): 0.483 | relative viability ([7]; first compound 0.253 µM): 0.544 | relative viability ([7]; first compound 0.8 µM): 0.504 | relative viability ([7]; first compound 2.53 µM): 0.476 | relative viability ([8]; first compound 0.08 µM): 0.394 | relative viability ([8]; first compound 0.253 µM): 0.442 | relative viability ([8]; first compound 0.8 µM): 0.462 | relative viability ([8]; first compound 2.53 µM): 0.402 | relative viability ([9]; first compound 0.08 µM): 0.653 | relative viability ([9]; first compound 0.253 µM): 0.618 | relative viability ([9]; first compound 0.8 µM): 0.614 | relative viability ([9]; first compound 2.53 µM): 0.654 | relative viability ([10]; first compound 0.08 µM): 0.521 | relative viability ([10]; first compound 0.253 µM): 0.522 | relative viability ([10]; first compound 0.8 µM): 0.48 | relative viability ([10]; first compound 2.53 µM): 0.492 | relative viability ([11]; first compound 0.08 µM): 0.421 | relative viability ([11]; first compound 0.253 µM): 0.497 | relative viability ([11]; first compound 0.8 µM): 0.447 | relative viability ([11]; first compound 2.53 µM): 0.453 | relative viability ([12]; first compound 0.08 µM): 0.362 | relative viability ([12]; first compound 0.253 µM): 0.378 | relative viability ([12]; first compound 0.8 µM): 0.287 | relative viability ([12]; first compound 2.53 µM): 0.296 | relative viability ([13]; first compound 0.08 µM): 0.366 | relative viability ([13]; first compound 0.253 µM): 0.301 | relative viability ([13]; first compound 0.8 µM): 0.333 | relative viability ([13]; first compound 2.53 µM): 0.39 | relative viability ([14]; first compound 0.08 µM): 0.221 | relative viability ([14]; first compound 0.253 µM): 0.263 | relative viability ([14]; first compound 0.8 µM): 0.297 | relative viability ([14]; first compound 2.53 µM): 0.268 | relative viability ([15]; first compound 0.08 µM): 0.389 | relative viability ([15]; first compound 0.253 µM): 0.369 | relative viability ([15]; first compound 0.8 µM): 0.403 | relative viability ([15]; first compound 2.53 µM): 0.371 | relative viability ([16]; first compound 0.08 µM): 0.762 | relative viability ([16]; first compound 0.253 µM): 0.654 | relative viability ([16]; first compound 0.8 µM): 0.821 | relative viability ([16]; first compound 2.53 µM): 0.897 | relative viability ([17]; first compound 0.08 µM): 0.544 | relative viability ([17]; first compound 0.253 µM): 0.546 | relative viability ([17]; first compound 0.8 µM): 0.544 | relative viability ([17]; first compound 2.53 µM): 0.55 | relative viability ([18]; first compound 0.08 µM): 0.186 | relative viability ([18]; first compound 0.253 µM): 0.177 | relative viability ([18]; first compound 0.8 µM): 0.154 | relative viability ([18]; first compound 2.53 µM): 0.18 | relative viability ([19]; first compound 0.08 µM): 0.157 | relative viability ([19]; first compound 0.253 µM): 0.0391 | relative viability ([19]; first compound 0.8 µM): 0.139 | relative viability ([19]; first compound 2.53 µM): 0.25 | relative viability ([20]; first compound 0.08 µM): 0.556 | relative viability ([20]; first compound 0.253 µM): 0.548 | relative viability ([20]; first compound 0.8 µM): 0.537 | relative viability ([20]; first compound 2.53 µM): 0.581 | relative viability ([21]; first compound 0.08 µM): 1.1 | relative viability ([21]; first compound 0.253 µM): 0.999 | relative viability ([21]; first compound 0.8 µM): 1.08 | relative viability ([21]; first compound 2.53 µM): 1.14 | relative viability ([22]; first compound 0.08 µM): 0.35 | relative viability ([22]; first compound 0.253 µM): 0.323 | relative viability ([22]; first compound 0.8 µM): 0.363 | relative viability ([22]; first compound 2.53 µM): 0.323
